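Cultured in 96-well plates, cells were exposed to test compound for 48 hours across five concentrations. GI50: concentration for 50% inhibition of growth. TGI: total growth inhibition.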
Experiments:
Assay in all cases: NCI anticancer screen, dose series, 48 h
[1] = system: OVCAR-8 ovarian
[2] = system: OVCAR-5 ovarian
[3] = system: HOP-62 NSCLC
[4] = system: CAKI-1 renal
[5] = system: NCI-H226 lung
[6] = system: NCI-H522 lung
[7] = system: A498 renal
[8] = system: HCC-2998 colon
[9] = system: MDA-MB-231 breast
[10] = system: HL-60(TB) leukemia
[11] = system: RPMI-8226 leukemia
[12] = system: SNB-19 CNS
[13] = system: 786-0 renal
[14] = system: SR leukemia
[15] = system: U251 CNS
[16] = system: PC-3 prostate
[17] = system: HCT-116 colon
[18] = system: SW-620 colon
[19] = system: DU-145 prostate
[20] = system: SK-MEL-28 melanoma
[21] = system: ACHN renal
[22] = system: HCT-15 colon
[23] = system: SNB-75 CNS
[24] = system: SK-OV-3 ovarian
[25] = system: UO-31 renal
[26] = system: EKVX NSCLC
[27] = system: NCI/ADR-RES ovarian
[28] = system: UACC-257 melanoma
[29] = system: IGROV1 ovarian
[30] = system: KM12 colon
[31] = system: SF-539 CNS
[32] = system: OVCAR-4 ovarian
[33] = system: OVCAR-3 ovarian
[34] = system: SF-268 CNS
[35] = system: LOX IMVI melanoma
[36] = system: K-562 leukemia
[37] = system: NCI-H23 lung
[38] = system: TK-10 renal
[39] = system: BT-549 breast
[40] = system: MDA-MB-435
[41] = system: SF-295 CNS
[42] = system: COLO 205 colon
[43] = system: SN12C renal
[44] = system: NCI-H460 lung
[45] = system: SK-MEL-2 melanoma
[46] = system: A549 NSCLC
[47] = system: T-47D breast
[48] = system: MALME-3M melanoma
[49] = system: MOLT-4 leukemia
[50] = system: UACC-62 melanoma
[51] = system: RXF 393 renal
[52] = system: M14 melanoma
[53] = system: SK-MEL-5 melanoma
[54] = system: HT29 colon
[55] = system: HS 578T breast
[56] = system: MCF7 breast
[57] = system: HOP-92 NSCLC

Cn1cccc1-c1cc(-c2ccccc2)nc(N)c1C#N
GI50 [1]: > 100 µM | TGI [1]: > 100 µM | GI50 [2]: > 100 µM | TGI [2]: > 100 µM | GI50 [3]: 84.6 µM | TGI [3]: > 100 µM | GI50 [4]: > 100 µM | TGI [4]: > 100 µM | GI50 [5]: > 46.4 µM | TGI [5]: > 100 µM | GI50 [6]: > 78.2 µM | TGI [6]: > 100 µM | GI50 [7]: 36.8 µM | TGI [7]: > 100 µM | GI50 [8]: > 100 µM | TGI [8]: > 100 µM | GI50 [9]: > 82 µM | TGI [9]: > 100 µM | GI50 [10]: 0.761 µM | TGI [10]: > 100 µM | GI50 [11]: 55.9 µM | TGI [11]: > 100 µM | GI50 [12]: > 89.5 µM | TGI [12]: > 100 µM | GI50 [13]: > 96.4 µM | TGI [13]: > 100 µM | GI50 [14]: 40.8 µM | TGI [14]: > 100 µM | GI50 [15]: > 100 µM | TGI [15]: > 100 µM | GI50 [16]: > 100 µM | TGI [16]: > 100 µM | GI50 [17]: > 100 µM | TGI [17]: > 100 µM | GI50 [18]: > 100 µM | TGI [18]: > 100 µM | GI50 [19]: 97.5 µM | TGI [19]: > 100 µM | GI50 [20]: > 100 µM | TGI [20]: > 100 µM | GI50 [21]: > 100 µM | TGI [21]: > 100 µM | GI50 [22]: > 100 µM | TGI [22]: > 100 µM | GI50 [23]: > 43 µM | TGI [23]: > 87.9 µM | GI50 [24]: > 100 µM | TGI [24]: > 100 µM | GI50 [25]: > 100 µM | TGI [25]: > 100 µM | GI50 [26]: 98.1 µM | TGI [26]: > 100 µM | GI50 [27]: > 100 µM | TGI [27]: > 100 µM | GI50 [28]: > 100 µM | TGI [28]: > 100 µM | GI50 [29]: > 100 µM | TGI [29]: > 100 µM | GI50 [30]: > 100 µM | TGI [30]: > 100 µM | GI50 [31]: > 58.3 µM | TGI [31]: > 100 µM | GI50 [32]: > 68.6 µM | TGI [32]: > 100 µM | GI50 [33]: > 67.7 µM | TGI [33]: > 100 µM | GI50 [34]: > 100 µM | TGI [34]: > 100 µM | GI50 [35]: > 100 µM | TGI [35]: > 100 µM | GI50 [36]: > 100 µM | TGI [36]: > 100 µM | GI50 [37]: > 100 µM | TGI [37]: > 100 µM | GI50 [38]: > 100 µM | TGI [38]: > 100 µM | GI50 [39]: 67.5 µM | TGI [39]: > 100 µM | GI50 [40]: > 100 µM | TGI [40]: > 100 µM | GI50 [41]: > 86.3 µM | TGI [41]: > 100 µM | GI50 [42]: > 100 µM | TGI [42]: > 100 µM | GI50 [43]: > 76.8 µM | TGI [43]: > 100 µM | GI50 [44]: > 100 µM | TGI [44]: > 100 µM | GI50 [45]: > 100 µM | TGI [45]: > 100 µM | GI50 [46]: > 100 µM | TGI [46]: > 100 µM | GI50 [47]: > 100 µM | TGI [47]: > 100 µM | GI50 [48]: > 100 µM | TGI [48]: > 100 µM | GI50 [49]: > 70 µM | TGI [49]: > 100 µM | GI50 [50]: 34.5 µM | TGI [50]: > 100 µM | GI50 [51]: > 100 µM | TGI [51]: > 100 µM | GI50 [52]: > 100 µM | TGI [52]: > 100 µM | GI50 [53]: 98.7 µM | TGI [53]: > 100 µM | GI50 [54]: > 100 µM | TGI [54]: > 100 µM | GI50 [55]: > 28.8 µM | TGI [55]: > 100 µM | GI50 [56]: > 100 µM | TGI [56]: > 100 µM

COc1cc2nc(-c3cccs3)nc(N3C(c4cc(OC)c(OC)c(OC)c4)=NNC(=O)c4ccccc43)c2cc1OC
TGI [1]: > 100 µM | TGI [2]: 54.5 µM | TGI [3]: > 100 µM | TGI [4]: > 100 µM | TGI [5]: > 100 µM | TGI [6]: > 100 µM | TGI [7]: > 100 µM | TGI [9]: 40.6 µM | TGI [10]: > 100 µM | TGI [12]: 46.3 µM | TGI [13]: > 100 µM | TGI [14]: > 100 µM | TGI [15]: 50.4 µM | TGI [16]: > 100 µM | TGI [17]: > 100 µM | TGI [19]: 91.1 µM | TGI [20]: 81.6 µM | TGI [21]: > 100 µM | TGI [22]: 47.8 µM | TGI [23]: 54.2 µM | TGI [24]: > 100 µM | TGI [25]: > 100 µM | TGI [26]: 73.5 µM | TGI [27]: 9.25 µM | TGI [28]: > 100 µM | TGI [29]: > 100 µM | TGI [30]: > 100 µM | TGI [31]: 44.6 µM | TGI [32]: 42.1 µM | TGI [33]: 50.2 µM | TGI [34]: > 100 µM | TGI [57]: > 100 µM | TGI [35]: 45.8 µM | TGI [36]: > 100 µM | TGI [37]: 35.4 µM | TGI [38]: 51.9 µM | TGI [39]: 39.6 µM | TGI [40]: 32.1 µM | TGI [41]: 42.6 µM | TGI [42]: > 100 µM | TGI [43]: 51.3 µM | TGI [44]: > 100 µM | TGI [45]: > 100 µM | TGI [46]: > 100 µM | TGI [47]: > 100 µM | TGI [48]: 45 µM | TGI [49]: > 100 µM | TGI [50]: 35.8 µM | TGI [52]: > 100 µM | TGI [53]: > 100 µM | TGI [54]: > 100 µM | TGI [55]: > 100 µM | TGI [56]: > 100 µM

Reference: PubChem BioAssay (NCI)
